Measured values as given in ChEMBL document CHEMBL1135214, “Meiosis activating sterols derived from diosgenin” (2002).
Calls of active or inactive are those of the source. No cut-off for these calls is given here.

Organism: Mus musculus
Assay: Tested for ability to induce meiosis in immature mouse oocytes by measuring the rate of germinal vesicle breakdown (GVB) relative to FF-MAS
Type: functional
Set-up: concentration or dose not given beside the values
Compound C[C@@H](CI)CCC[C@@H](C)[C@H]1CC=C2C3=C(CC[C@@]21C)[C@@]1(C)CC[C@H](O)C(C)(C)[C@@H]1CC3 has a Relative activity of 85%.
CC(CO)CCC[C@@H](C)[C@H]1CC[C@H]2[C@@H]3CC=C4C(C)(C)[C@@H](O)CC[C@]4(C)[C@H]3CC[C@]12C (single isomer, unassigned) showed a Relative activity of 71%.
In the case of C[C@H](CCCC(C)(C)Cl)[C@H]1CC=C2C3=C(CC[C@@]21C)[C@@]1(C)CC[C@H](O)C(C)(C)[C@@H]1CC3, the Relative activity is reported as 62%.
Compound C[C@@H](CCl)CCC[C@@H](C)[C@H]1CC=C2C3=C(CC[C@@]21C)[C@@]1(C)CC[C@H](O)C(C)(C)[C@@H]1CC3 has a Relative activity of 87%.
C[C@@H](CO)CCC[C@@H](C)[C@H]1CCC2C3=CC=C4C(C)(C)[C@@H](O)CC[C@]4(C)C3CC[C@@]21C (stereo partly drawn) gave a Relative activity of 89%.
For C=C(C)CCC[C@@H](C)[C@H]1CC=C2C3=C(CC[C@@]21C)[C@@]1(C)CC[C@H](O)C(C)(C)[C@@H]1CC3, the Relative activity was 106%.
CC(C)CCC[C@@H](C)[C@H]1[C@@H](O)CC2C3=CC=C4C(C)(C)[C@@H](O)CC[C@]4(C)C3CC[C@@]21C (stereo partly drawn) gave a Relative activity of 90%.
For CC(C)CCC[C@@H](C)[C@H]1[C@@H](O[Si](C)(C)C(C)(C)C)CC2C3CC=C4C[C@@H](O)CC[C@]4(C)C3CC[C@@]21C (stereo partly drawn), the Relative activity was 43%.
CC(C)CCC[C@@H](C)[C@H]1[C@@H](O)CC2C3CC=C4C(C)(C)[C@@H](O)CC[C@]4(C)C3CC[C@@]21C (stereo partly drawn) gave a Relative activity of 113%.
CC(C)CCC[C@@H](C)[C@H]1[C@@H](O)CC2C3CC=C4CCCC[C@]4(C)C3CC[C@@]21C (stereo partly drawn) showed a Relative activity of 87%.

Organism: Mus musculus
Assay: Tested for ability to induce meiosis in immature mouse oocytes by measuring the rate of germinal vesicle breakdown (GVB)
Type: functional
In the case of CC(C)=CCC[C@@H](C)[C@H]1CC=C2C3=C(CC[C@@]21C)[C@@]1(C)CC[C@H](O)C(C)(C)[C@@H]1CC3, the Activity is reported as 100%.

Organism: Mus musculus
Assay: Tested for ability to induce meiosis in immature mouse oocytes by measuring the rate of germinal vesicle breakdown (GVB) relative to FF-MAS; na means Not active
Type: functional
With C[C@@H](CO)CCC[C@@H](C)[C@H]1CCC2C3CC=C4C[C@@H](O)CC[C@]4(C)C3CC[C@@]21C (stereo partly drawn) the Relative activity was “inactive”.
C[C@@H](CO)CCC[C@@H](C)[C@H]1CC=C2C3=C(CC[C@@]21C)[C@@]1(C)CC[C@H](O)C(C)(C)[C@@H]1CC3 was tested, and the Relative activity was “inactive”.
